The values below come from ChEMBL document CHEMBL1154174, “Phytochemical investigation of labdane diterpenes from the rhizomes of Hedychium spicatum and their cytotoxic activity” (Bioorg Med Chem Lett, 2009).

Each structure is given as a SMILES string.

Common to all, as to format: functional, cell-based
One assay deals with HL-60. Briefly: Cytotoxicity against human HL60 cells by MTT assay. On the technique in general: Tetrazolium dyes change colour on reduction, which living cells bring about.
Another assay concerns THP-1. As to the kind of experiment: Cytotoxicity against human THP1 cells by MTT assay.
Another assay has as its system A549. Briefly: Cytotoxicity against human A549 cells by MTT assay.
The subject of the next assay is A-375. As to the kind of experiment: Cytotoxicity against human A375 cells by MTT assay.
The mark [1] stands for this setting: Homo sapiens, HL-60, read-out: IC50.

As a reminder, the IC50 is the concentration at which inhibition is half-maximal. For the compound `COc1cc([C@@H]2c3cc4c(cc3[C@@H](O[C@@H]3O[C@@H]5CO[C@@H](C)O[C@H]5[C@H](O)[C@H]3O)[C@H]3COC(=O)[C@H]23)OCO4)cc(OC)c1O` [ETOPOSIDE], the IC50 with HL-60 (setting [1]) is 2.16 µM; with THP-1, 1.83 µM.

On to `CC1(C)CCC[C@]2(C)[C@@H](/C=C/c3ccoc3)C(C=O)=C(O)C(=O)[C@@H]12`, for which the IC50 with A549 is 37.9 µM; with HL-60 (setting [1]) it was 16 µM; with A-375, 21.6 µM; in the assay with THP-1, 23.4 µM.

In the case of `CCOC(=O)/C=C/c1ccc(OC)cc1` [4-METHOXY ETHYL CINNAMATE], the IC50 in the assay with HL-60 (setting [1]) was determined as 29.6 µM; with A-375, 31.3 µM; in the assay with THP-1, 33.5 µM.

For the compound `C=C1CC[C@H]2C(C)(C)CCC[C@]2(C)[C@H]1C`, the concentration for half-maximal inhibition (IC50) is 61.3 µM in the assay on A549, “Not Active” in the assay with HL-60 (hl-60), 50.2 µM with A-375 and 53.9 µM in the assay with THP-1.

As for `CCOC(=O)/C=C/c1ccccc1` [ETHYL CINNAMATE], the IC50 in the assay with A549 stood at 50.4 µM; in the assay with HL-60 (setting [1]) it was 35.7 µM; in the assay with A-375 it was 31.6 µM; with THP-1, 41.2 µM.

Regarding `CC1(C)CCC[C@]2(C)[C@@H](/C=C/c3ccoc3)C(CO)=CC(=O)[C@@H]12` [YUNNACORONARIN D], the IC50 with A549 worked out at 51.2 µM; with HL-60 (setting [1]), 36.4 µM; in the assay with A-375, 41.9 µM; in the assay on THP-1 it was 59.5 µM.

Turning to `CC1=CC(=O)[C@H]2C(C)(C)CCC[C@]2(C)[C@H]1/C=C/C(=O)O` [SPICATANOIC ACID], the IC50 in the assay on A549 is 52 µM; in the assay with HL-60 (setting [1]), 69.4 µM; in the assay on A-375, 56.1 µM; with THP-1 it was 39 µM.

In the case of `O=c1cc(-c2ccccc2)oc2cc(O)cc(O)c12` [CHRYSIN], the IC50 amounted to 19.9 µM in the assay with A549, 34 µM with HL-60 (setting [1]), 29.7 µM with A-375 and 23.4 µM with THP-1.

For `C=C1CC[C@H]2C(C)(C)CCC[C@]2(C)[C@H]1/C=C/c1ccoc1` [CORONARIN E], the IC50 in the assay with A549 stood at 53.3 µM; in the assay on HL-60 (setting [1]), 31.2 µM; in the assay with A-375 it was 36.6 µM; in the assay on THP-1 it was 34 µM.
